The record followed here is patent EP2365972B1, “MODULATORS OF ATP-BINDING CASSETTE TRANSPORTERS” (Vertex Pharmaceuticals Incorporated, priority 2008, dated 2010).

The experiment addresses T1, ΔF508-CFTR (Homo sapiens, UniProt P13569, DEL508-508).
T1 construct: expressed in transfected cells
Description: Membrane potential optical assay for ΔF508-CFTR correction (single-addition HTS format). Format: cell-based. The conditions noted are these: NIH 3T3 cells expressing ΔF508-CFTR, 16-24 hrs with test compound, 10 µM forskolin and genistein (20 µM); for Emax: NIH3T3, read-out: Binned Max Efficacy; for EC50: read-out: Binned EC50. An excerpt: Membrane potential optical methods for assaying ΔF508-CFTR modulation properties of compounds.
The assay utilizes fluorescent voltage sensing dyes to measure changes in membrane potential using a fluorescent plate reader (e.g., FLIPR III, Molecular Devices, Inc.) as a readout for increase in functional ΔF508-CFTR in NIH 3T3 cells. The driving force for the response is the creation of a chloride ion gradient in conjunction with channel activation by a single liquid addition step after the cells have previously been treated with compounds and subsequently loaded with a voltage sensing dye.
To identify small molecules that correct the trafficking defect associated with ΔF508-CFTR; a single-addition HTS assay format was developed. Assay Plates containing cells are incubated for ∼2-4 hours in tissue culture incubator at 37°C, 5%CO2, 90% humidity. Cells are then ready for compound exposure after adhering to the bottom of the assay plates.
The cells were incubated in serum-free medium for 16-24 hrs in tissue culture incubator at 37°C, 5%CO2, 90% humidity in the presence or absence (negative control) of test compound. The cells were subsequently rinsed 3X with Krebs Ringers solution and loaded with a voltage sensing redistribution dye. To activate ΔF508-CFTR, 10 µM forskolin and the CFTR potentiator, genistein (20 µM), were added along with Cl^--free medium to each well. The addition of Cl^--free medium promoted Cl^- efflux in response to ΔF508-CFTR activation and the resulting membrane depolarization was optically monitored using voltage sensor dyes.
Bath Solution #1: (in mM) NaCl 160, KCl 4.5, CaCl2 2, MgCl2 1, HEPES 10, pH 7.4 with NaOH.
Chloride-free bath solution: Chloride salts in Bath Solution #1 are substituted with gluconate salts.
NIH3T3 mouse fibroblasts stably expressing ΔF508-CFTR are used for optical measurements of membrane potential. The cells are maintained at 37 °C in 5% CO2 and 90 % humidity in Dulbecco's modified Eagle's medium supplemented with 2 mM glutamine, 10 % fetal bovine serum, 1 X NEAA, β-ME, 1 X pen/strep, and 25 mM HEPES in 175 cm^2 culture flasks. For all optical assays, the cells were seeded at […] in 384-well matrigel-coated plates and cultured for 2 hrs at 37 °C before culturing at 27 °C for 24 hrs. for the potentiator assay. For the correction assays, the cells are cultured at 27 °C or 37 °C with and without compounds for 16 - 24 hours.

T1 sequence (P13569 with tags, fused parts or gaps DEL508-508): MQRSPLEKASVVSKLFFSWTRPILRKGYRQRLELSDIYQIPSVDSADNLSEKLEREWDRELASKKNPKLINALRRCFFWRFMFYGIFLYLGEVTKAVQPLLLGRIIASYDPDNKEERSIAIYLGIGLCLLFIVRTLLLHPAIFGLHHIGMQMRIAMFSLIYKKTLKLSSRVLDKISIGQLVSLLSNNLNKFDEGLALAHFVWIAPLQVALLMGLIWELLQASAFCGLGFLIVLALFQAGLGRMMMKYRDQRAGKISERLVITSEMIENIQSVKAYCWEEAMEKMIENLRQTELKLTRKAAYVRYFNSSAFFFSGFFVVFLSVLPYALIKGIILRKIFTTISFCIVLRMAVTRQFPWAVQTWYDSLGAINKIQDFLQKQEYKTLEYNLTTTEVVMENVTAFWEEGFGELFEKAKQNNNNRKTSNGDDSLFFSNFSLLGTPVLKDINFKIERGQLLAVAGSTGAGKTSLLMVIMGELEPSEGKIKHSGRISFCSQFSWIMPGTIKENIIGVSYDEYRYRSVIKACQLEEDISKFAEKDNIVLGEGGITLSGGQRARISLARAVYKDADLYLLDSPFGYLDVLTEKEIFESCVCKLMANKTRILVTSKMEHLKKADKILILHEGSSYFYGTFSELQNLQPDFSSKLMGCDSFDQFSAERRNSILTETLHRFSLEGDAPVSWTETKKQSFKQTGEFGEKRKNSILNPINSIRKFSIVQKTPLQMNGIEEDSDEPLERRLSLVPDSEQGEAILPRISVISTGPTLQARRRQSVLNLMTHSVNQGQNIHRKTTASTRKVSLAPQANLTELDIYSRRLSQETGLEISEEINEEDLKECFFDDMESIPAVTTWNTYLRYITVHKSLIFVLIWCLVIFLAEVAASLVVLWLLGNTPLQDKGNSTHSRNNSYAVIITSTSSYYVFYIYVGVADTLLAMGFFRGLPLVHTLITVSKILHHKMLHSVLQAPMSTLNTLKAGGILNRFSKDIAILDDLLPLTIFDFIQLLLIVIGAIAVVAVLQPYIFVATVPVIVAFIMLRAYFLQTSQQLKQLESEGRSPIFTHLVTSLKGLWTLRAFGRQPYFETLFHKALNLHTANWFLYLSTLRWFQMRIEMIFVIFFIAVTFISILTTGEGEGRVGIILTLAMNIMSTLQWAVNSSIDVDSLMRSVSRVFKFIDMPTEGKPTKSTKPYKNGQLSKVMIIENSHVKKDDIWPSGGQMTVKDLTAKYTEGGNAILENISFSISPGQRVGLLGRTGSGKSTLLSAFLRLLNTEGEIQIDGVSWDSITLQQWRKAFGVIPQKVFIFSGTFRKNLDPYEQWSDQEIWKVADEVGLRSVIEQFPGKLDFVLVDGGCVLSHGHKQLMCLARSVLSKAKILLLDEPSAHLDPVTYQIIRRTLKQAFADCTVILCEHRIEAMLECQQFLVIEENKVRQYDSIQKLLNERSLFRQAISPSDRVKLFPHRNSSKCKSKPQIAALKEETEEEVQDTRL

The EC50 is the concentration that produces a half-maximal response. `CC(C)(CCO)c1cc2cc(NC(=O)C3(c4ccc5c(c4)OC(F)(F)O5)CC3)c(F)cc2n1C[C@@H](O)CO` [Compound 311, (R)-1-(2,2-difluorobenzo[d][1,3]dioxol-5-yl)-N-(1-(2,3-dihydroxypropyl)-6-fluoro-2-(4-hydroxy-2-methylbutan-2-yl)-1H-indol-5-yl)cyclopropanecarboxamide]: the Emax is above 100% and the concentration giving a half-maximal response (EC50) was below 2000 nM.

As for “2-(2-tert-butyl-5-(1-(2,2-difluorobenzo[d][1,3]dioxol-5-yl)cyclopropanecarboxamido)-6-fluoro-1H-indol-1-yl)-N,N,N-trimethylethanaminium chloride [Compound 308]”, the “Binned Max Efficacy” value is listed as “+++ ("+++" means > 100%)” and the EC50 is 2000 to 5000 nM.

Regarding `CC(C)(C)c1cc2c(C#N)c(NC(=O)C3(c4ccc5c(c4)OC(F)(F)O5)CC3)ccc2n1CCO` [Compound 315, N-(2-tert-butyl-4-cyano-1-(2-hydroxyethyl)-1H-indol-5-yl)-1-(2,2-difluorobenzo[d][1,3]dioxol-5-yl)cyclopropanecarboxamide], the Emax is above 100% and the EC50 was below 2000 nM.

`CC(C)(C)c1cc2cc(NC(=O)C3(c4ccc5c(c4)OCO5)CC3)c(F)cc2n1CC(O)CO` (stereo not drawn) [Compound 318]: the Emax was above 100% and the EC50 was below 2000 nM.

Take `CC(C)(CCOC[C@@H](O)CO)c1cc2cc(NC(=O)C3(c4ccc5c(c4)OC(F)(F)O5)CC3)c(F)cc2[nH]1` [Compound 309, (S)-1-(2,2-difluorobenzo[d][1,3]dioxol-5-yl)-N-(2-(4-(2,3-dihydroxypropoxy)-2-methylbutan-2-yl)-6-fluoro-1H-indol-5-yl)cyclopropanecarboxamide]: the Emax is above 100% and the EC50 is below 2000 nM.

On to `CC(C)(CCOC[C@@H](O)CO)c1cc2cc(NC(=O)C3(c4ccc5c(c4)OC(F)(F)O5)CC3)c(F)cc2n1C[C@@H](O)CO` [Compound 310, 1-(2,2-difluorobenzo[d][1,3]dioxol-5-yl)-N-(2-(4-((S)-2,3-dihydroxypropoxy)-2-methylbutan-2-yl)-1-((R)-2,3-dihydroxypropyl)-6-fluoro-1H-indol-5-yl)cyclopropanecarboxamide], for which the Emax is above 100% and the EC50 is below 2000 nM.
